We go through one molecule from patent US11395479B2, “Method to reduce microbial bloom in poultry hatchery” (Novozymes A/S, priority 2016, dated 2022).

Common to all, as to assay type: in vivo, commercial broiler chicks
Common to all, as to conditions: gut of DOH chicks, n = 12, ± Std Err

Experiment [1] has as its system presumptive Lactic Acid Bacteria (LAB). The experiment in a line: Gut counts of day of hatch chicks: presumptive LAB on MRS agar.
The subject of the next experiment is thermotolerant spores. The experiment in a line: Gut counts of day of hatch chicks: thermotolerant spores on TSA. Here is the method: Guts from chicks treated with either the bacterial formulation of example 3 or formaldehyde were tested for thermotolerant spores, presumptive Lactic Acid Bacteria (LAB) and Gram-negative bacteria.
Directly prior to chick removal from the hatchers twelve birds per treatment group were removed from the hatcher. Birds were transported (˜1 h) to an appropriate research facility and humanely euthanized by CO2 asphyxiation. Gut packs containing duodenum, ileum, and ceca were aseptically removed and separately homogenized. Gut samples were diluted in sterile saline at a 1:4 wt/vol rate. Ten-fold dilutions were made by placing 200 μl of the sample (N) into the first row of a sterile 96-well plate and sequentially diluting by transferring 20 μl to 180 μl sterile saline to the 10^−7 dilution. The dilutions (N to 10^−7) were plated by 10 μl drop onto both MRS agar and MacConkey's agar. For Trypticase soy agar (TSA) plating, the gut samples were Pasteurized at 80° C. for 10 min before transferring 200 μl into a 96 well plate. The rest of the dilutions and plating methods were the same as the MRS and MacConkey's agar. Agar plates were counted after 24 h of incubation at 37° C.

For the next experiment, the system named is Gram-negative bacteria. The experiment in a line: Gut counts of day of hatch chicks: Gram-negative bacteria on MacConkey's agar.

As for `C=O` [Formaldehyde], the “presumptive Lactic Acid bacteria counts, MRS agar, Exp 1” value in experiment [1] (Exp 1) stood at 7.79 ± 0.17 Log10 CFU/g. Moreover, in experiment [1] (Exp 2), the “presumptive Lactic Acid bacteria counts, MRS agar, Exp 2” value was 7.26 ± 0.34 Log10 CFU/g. Moreover, in experiment [1] (Exp 3), the “presumptive Lactic Acid bacteria counts, MRS agar, Exp 3” value was 6.26 ± 0.83 Log10 CFU/g. For the same molecule, the “presumptive Lactic Acid bacteria counts, MRS agar, Exp 4” value in experiment [1] (Exp 4) is listed as 5.1 ± 0.99 Log10 CFU/g. Moreover, the “presumptive Lactic Acid bacteria counts, MRS agar, Exp 5” value in experiment [1] (Exp 5) was found to be 2.85 ± 0.96 Log10 CFU/g. Besides, the “thermotolerant spore counts, TSA, Exp 1” value in the experiment on thermotolerant spores (Exp 1, samples not pasteurized) is on record as 8.95 ± 0.2 Log10 CFU/g. In addition, the “thermotolerant spore counts, TSA, Exp 2” value in the experiment on thermotolerant spores (Exp 2, pasteurized) is 1.34 ± 0.48 Log10 CFU/g. Further, in the experiment on thermotolerant spores (Exp 3, pasteurized), the “thermotolerant spore counts, TSA, Exp 3” value is reported as 0.69 ± 0.36 Log10 CFU/g. Also, the “thermotolerant spore counts, TSA, Exp 4” value with thermotolerant spores (Exp 4, pasteurized) was 0.44 ± 0.3 Log10 CFU/g. Moreover, the “thermotolerant spore counts, TSA, Exp 5” value with thermotolerant spores (Exp 5, pasteurized) was 0 ± 0 Log10 CFU/g. In addition, the “presumptive Gram-negative bacteria counts, MacConkey's agar, Exp 1” value with Gram-negative bacteria (Exp 1) came out at 8.39 ± 0.19 Log10 CFU/g. Besides, the “presumptive Gram-negative bacteria counts, MacConkey's agar, Exp 2” value in the experiment on Gram-negative bacteria (Exp 2) was 6.56 ± 0.83 Log10 CFU/g. For the same molecule, the “presumptive Gram-negative bacteria counts, MacConkey's agar, Exp 3” value in the experiment with Gram-negative bacteria (Exp 3) is given as 3.9 ± 0.93 Log10 CFU/g. The “presumptive Gram-negative bacteria counts, MacConkey's agar, Exp 4” value in the experiment with Gram-negative bacteria (Exp 4) is 4.95 ± 0.99 Log10 CFU/g. In addition, the “presumptive Gram-negative bacteria counts, MacConkey's agar, Exp 5” value in the experiment with Gram-negative bacteria (Exp 5) came to 2.84 ± 0.92 Log10 CFU/g.
